Patent US20250312356A1, “TREATMENT OF DYSMENORRHEA” (priority 2024, published 2025)
Like-named read-outs stand apart in the source and are kept apart here.

Experiments:
[1] = test system: human volunteers of both sexes; test: reflex activity and physiologic parameters after intranasal administration in volunteers; type: in vivo; details: 1.6 μg intranasal
Experimental: (§1) The half effective dose of this effect was 0.087 μg.
(§2) 16α,17α-Epoxyestr-4-en-10β-ol-3-one decreased parasympathetic system tone resulting in increased sympathetic activity and stimulation of β2 adrenergic receptors in the bronchiole smooth muscle that induced bronchodilation; • (b) increased skin conductance amplitude is the result of increased skin secretions, which are produced by preponderance of the sympathetic nervous system tone (or decreased parasympathetic tone); • (c) decreased body temperature is explained by increased activity of the posterior (adrenergic) hypothalamus and decreased parasympathetic tone (anterior hypothalamus).

[2] = test system: GABAA receptors, opioid receptors, or dopamine receptors; test: in vitro receptor binding study
[3] = test system: menopausal women; test: hot flashes after intranasal administration; type: in vivo, human
From the text: as §2

[4] = test system: females with DSM-IV-defined PMDD; test: Phase 2a study, daily symptom report pain cluster, cramps; type: in vivo, human
From the text: During a 3- to 5-week screening period, patients who presented to the clinic for bothersome PMDD symptoms (defined as “affected functioning”) were recruited. The Premenstrual Tension Syndrome scale was used for screening. After study eligibility criteria and PMDD symptom presence were confirmed at Visit 1, patients received single-blind placebo; those with no acute improvement were eligible for randomization study. Randomized patients presented for Visit 2 when PMDD symptoms were bothersome during the second cycle after entry. PH80 (0.9 μg) or placebo was administered intranasally; PMDD symptoms were evaluated 30 and 60 minutes later. Patients were then supplied with their assigned double-blind treatment for intranasal self-administration up to 4 times a day (PH80 0.9 μg/dose or matching placebo) for up to 6 consecutive days before the estimated menses onset in that cycle. On the first day of menses in the second cycle, a follow-up visit (Visit 3) occurred. 82 females were screened; 61 met eligibility criteria and were randomized to receive PH80 (n=33) or placebo (n=28). […] A total of 49 patients provided at least 1 post-treatment assessment and were included in the pain efficacy analysis.
Pain efficacy analysis for cramping was rated daily by the patient on a 5-point scale ranging from 0 (no symptoms at all) up to 4 (very severe). The overall pain cluster score and individual symptom ratings were compared post-hoc using two-sided T-tests, without adjustments for multiplicity or within-patient variance; means for each group were plotted for each reported day, and no imputation was made for missing data. Results are summarized in Table 2 and depicted in FIG. 3.

[5] = test system: nasal chemosensory mucosa; test: electrogram recorded from the surface of the nasal chemosensory mucosa; type: in vivo, human; details: intranasal
Experimental: as §1

[6] = test system: women of reproductive age; test: clinical study of changes in physiological parameters; type: in vivo, human; details: 0.5 μg nasal spray vs vehicle, 14 women
[7] = test system: rats, mice, rabbits and dogs; test: acute and multidose (28 day) toxicity studies; type: in vivo
[8] = test system: women diagnosed with PMDD
[9] = test system: women of reproductive age; test: clinical study of core body temperature and tone of the sympathoadrenergic system; type: in vivo, human; details: 1.6 μg nasal spray
Experimental: It also changed the tone of the sympathoadrenergic system (as assessed by measuring physiologic sinus arrhythmia) within 5 minutes of administration, and the effect persisted for 15 to 20 minutes.

[10] = test system: estrogen, androgen, progestin and glucocorticoid receptors; test: in vitro agonist or antagonist activity on steroid hormone receptors; type: biochemical
[11] = test system: neurotransmitter receptors, re-uptake sites, or steroid receptors; test: in vitro receptor binding study
[12] = Ames reverse mutation assay
[13] = test system: estrogen receptors; test: in vitro receptor binding study
[14] = test system: isolated human nasal chemosensory neurons; test: electrophysiological studies in isolated nasal chemosensory neurons; type: cell-based
[15] = in vivo
[16] = test system: pregnant rabbits; test: reproductive toxicity studies; type: in vivo; details: intravenous doses up to 2.5 mg/kg/day during organogenesis
[17] = test system: bone marrow; test: in vivo bone marrow micronucleus test

C[C@]12CCC3C(CCC4=CC(=O)CC[C@]43O)C1C[C@H]1O[C@H]12 (stereo partly drawn) [16α,17α-epoxyestr-4-en-10β-ol-3-one]
body core temperature (external ear canal) [1]: decreased body core temperature
cardiac rate [1]: no significant change
depth of the inspiratory cycle of respiration [1]: significantly increased amplitude
latency of modulation of reflex activity after electrogram [1]: 5 to 10 s
respiration rate [1]: decreased respiration rate within physiologic range
skeletal muscle tone (electromyogram, chin muscles) [1]: decreased skeletal muscle tone (relaxation)
skin conductance (electrodermal activity) [1]: increased amplitude
binding to GABAA receptors, opioid receptors, or dopamine receptors [2]: does not bind
hot flashes [3]: decreased number, severity and bother of hot flashes
cramps score, mean ([4]; Day 1, 0.9 μg/dose up to 4 times a day, 5-point scale 0 to 4): 1.26
cramps score, mean ([4]; Day 2): 1.00
cramps score, mean ([4]; Day 3): 0.59
cramps score, mean ([4]; Day 4): 0.52
cramps score, mean ([4]; Day 5): 0.42
cramps score, mean ([4]; Day 6, n=19, P=0.01 vs placebo): 0.21
half effective dose of electrogram activation [5]: 0.087 µg
activation of the electrogram ([5]; microgram quantities): concentration dependent activation
cardiac frequency [6]: not statistically significant increase
core body temperature [6]: statistically significant decreases
galvanic skin reflex [6]: statistically significant decreases
respiratory frequency [6]: statistically significant decreases
skeletal muscle tone [6]: statistically significant decreases
deaths, adverse clinical signs, effects on laboratory or pathology parameters ([7]; single and repeated intranasal and intravenous doses): no deaths or adverse clinical signs or effects on laboratory or pathology parameters observed
tolerability ([7]; single and repeated intranasal doses (up to 100 μg/rat, 400 μg/rabbit, 600 μg/dog) and intravenous doses up to 2.5 mg/kg): well tolerated in all species tested
cortical behavioral symptoms (headache, tension) ([8]; 0.9 μg intranasal aerosol): significant improvements
hypothalamic behavioral symptoms (fatigue, anger, craving for foods) ([8]; 0.9 μg intranasal aerosol): significant improvements
limbic system behavioral symptoms (mood swings, depression, lack of interest) ([8]; 0.9 μg intranasal aerosol): significant improvements
mean cramping score ([8]; Day 1, 29 women, scale 0 to 4): 1.19
mean headache score ([8]; Day 1, scale 0 to 4): 1.14
difference in mean cramping scores vs placebo ([8]; Day 4, p<0.05, one-tail test): significant
difference in mean headache scores vs placebo ([8]; Day 5, p<0.05, one-tail test): significant
share of group reporting cramping symptoms ([8]; Day 6): 17%
mean cramping score ([8]; Day 6, scale 0 to 4): 0.24
mean headache score ([8]; Day 6, scale 0 to 4): 0.28
persistence of improvements ([8]; single dose intranasal): approximately 5 hours
time to appearance of improvements ([8]; single dose intranasal): ≤ 30 min
serious adverse events ([8]; up to 4 times daily): No serious adverse events were reported
side effects ([8]; up to 4 times daily): minimal and similar to administration of placebo
decrease in core body temperature [9]: 1±0.23 °C
latency of decrease in core body temperature [9]: 0.5 to 4 min
persistence of decrease in core body temperature [9]: 9 ± 2.5 min
persistence of effect on tone of the sympathoadrenergic system [9]: 15 to 20 min
time to change of tone of the sympathoadrenergic system (physiologic sinus arrhythmia) [9]: ≤ 5 minutes
agonist or antagonist activity on estrogen, androgen, progestin and glucocorticoid receptors [10]: no agonist or antagonist activity
binding to neurotransmitter receptors, re-uptake sites, or steroid receptors [11]: no binding
mutagenic or clastogenic potential [12]: no evidence of mutagenic or clastogenic potential
binding to estrogen receptors [13]: does not bind
concentration giving maximal response (amplitude) ([14]; concentration-dependent amplitude): 10^−7 to 10^−6 M
inward currents ([14]; isolated human nasal chemosensory neurons): induced inward currents
electrotonic depolarization of the nasal septal chemosensory mucosa ([14]; nasal septal chemosensory mucosa): electrotonic depolarization of the nasal septal chemosensory mucosa
systemic exposure [15]: lack of systemic exposure
effects on maternal or litter parameters [16]: no adverse effects on maternal or litter parameters
mutagenic or clastogenic potential [17]: no evidence of mutagenic or clastogenic potential
